Literature values, collected in patent US20100190757A1, “COMBINATION PREPARATION FOR ORAL CONTREACEPTION AND ORAL THERAPY OF DYSFUNCTIONAL UTERINE BLEEDING CONTAINING ESTRADIOL VALERATE AND DIENOGEST AND METHOD OF USING SAME” (priority 2005, published 2010).

Test system: dysfunctional uterine bleeding
Conditions: for duration of the bleeding period: 6 anovulatory women (14 days, 12th to 25th day of cycle) and ten ovulatory women (20 days, 5th to 25th day), three times daily, both groups; for reliable contraception: same regimen, anovulatory and ovulatory women

| SMILES | duration of the bleeding period | reliable contraception |
| --- | --- | --- |
| C#C[C@]1(O)CC[C@H]2[C@@H]3CCC4=CC(=O)CC[C@@H]4[C@H]3CC[C@@]21C [norethisterone] | reduced | not attained |
| CC(=O)O[C@]1(C(C)=O)CC[C@H]2[C@@H]3C[C@H](C)C4=CC(=O)CC[C@]4(C)[C@H]3CC[C@@]21C [medroxyprogesterone acetate] | reduced | not attained |
